From article PMC7993375, “Discovery of novel quinoline-based analogues of combretastatin A-4 as tubulin polymerisation inhibitors with apoptosis inducing activity and potent anticancer effect” (Journal of Enzyme Inhibition and Medicinal Chemistry, 2021)

Columns and labels:
[1] = tested on: HeLa; experiment: MTT cell viability assay, HeLa cervical adenocarcinoma cells; assay type: cell-based; details: Homo sapiens, 72 h
Experimental: (§1) The four human tumour cell lines MCF-7, HCT-116, HL-60 and HeLa used in this study were obtained from the VACSERA (Giza, Egypt) cell culture unit that were originally acquired from ATCC (Manassas, VA, USA). All the human tumour cell lines were cultured in Dulbecco’s Modified Eagle’s Medium (DMEM) with 10% foetal bovine serum, 2 mM L-glutamine and 100 µg/mL penicillin/streptomycin. Cells were maintained at 37 °C in 5% CO2 in a humidified incubator. All cells were sub-cultured 3 times/week by trypsinisation using TrypLE Express (1X).
(§2) The quinoline compounds were evaluated for antiproliferative effect using the MTT viability assay of four cancer cell lines (MCF-7, HCT-116, HL-60 and HeLa) and normal breast cells MCF-10A to calculate the relative IC50 values for each compound. Cells were seeded in triplicate in 96-well plates at a density of 10 × 10^3 cells/ml in a total volume of 200 µl per well. 0.1% of DMSO was used as a vehicle control. Following, the cells were treated with 2 µl test compound (from stock solutions in ethanol) to furnish the concentration range of study, 1 nM to 50 µM, and re-incubated for a further 72 h. The culture medium was then removed, and the cells washed with 100 µL phosphate buffered saline (PBS) and 50 µL MTT added, to reach a final concentration of 1 mg/mL. Cells were incubated for 2 h in darkness at 37 °C. Solubilisation was begun through the addition of […] DMSO, and the cells maintained at room temperature in darkness for 20 min to ensure thorough colour diffusion before reading the absorbance. Plates were incubated for 72 h at 37 °C + 5% CO2. The MTT (5 mg/mL in PBS) was added and incubated for another 4 h, and the optical density was detected with a microplate reader at 570 nm. Results were expressed as percentage viability relative to vehicle control (100%). Dose response curves were plotted and IC50 values (concentration of drug resulting in 50% reduction in cell survival) were obtained using the commercial software package Prism (GraphPad Software, Inc., La Jolla, CA, USA). All the experiments were repeated in at least three independent experiments.

[2] = tested on: bovine brain tubulin; experiment: Tubulin polymerisation assay; assay type: biochemical; details: for IC50: Tubulin was at 10 µM, read-out: Tubulin assembly IC50 (inhibition of tubulin polymerisation)
Experimental: The assembly of purified bovine tubulin was monitored using a kit, BK006, purchased from Cytoskeleton Inc., (Denver, CO, USA). The assay was carried out in accordance with the manufacturer’s instructions using the standard assay conditions. Briefly, purified ([…]) in a buffer consisting of 80 mM PIPES (pH 6.9), 0.5 mM EGTA, 2 mM MgCl2, 1 mM GTP and 10% glycerol was incubated at 37 °C in the presence of either vehicle (2% (v/v) ddH2O), CA-4, or the quinoline compounds. Light is scattered proportionally to the concentration of polymerised microtubules in the assay. Therefore, tubulin assembly was monitored turbidimetrically at 340 nm in a Spectramax 340 PC spectrophotometer (Molecular Devices, Sunnyvale, CA, USA). The concentration that inhibits tubulin polymerisation by 50% (IC50) was determined using area under the curve (AUC). The AUC of the untreated controls were considered as 100% polymerisation. The IC50 value for each compound was computed using GraphPad Prism Software.

[3] = tested on: MCF-7; experiment: MTT cell viability assay, MCF-7 breast adenocarcinoma cells; assay type: cell-based; details: Homo sapiens, MCF7, 72 h, read-out: IC50 value, MCF-7
Experimental: as §1, §2

[4] = tested on: MCF-7, HL-60, HCT-116 and HeLa; experiment: MTT cell viability assay, statements over all four cancer cell lines; assay type: cell-based, human
Experimental: as §1, §2

[5] = tested on: HCT-116; experiment: MTT cell viability assay, HCT-116 colorectal carcinoma cells; assay type: cell-based; details: Homo sapiens, 72 h
Experimental: as §1, §2

[6] = tested on: HL-60; experiment: MTT cell viability assay, HL-60 leukaemia cells; assay type: cell-based; details: Homo sapiens, 72 h, read-out: IC50 value, HL-60
Experimental: as §1, §2

Structure (SMILES)	IC50 [1]	melting point	fold less active than 12c (tubulin polymerisation) [2]	IC50 [2]	IC50 [3]	IC50 over all four cancer cell lines [4]	IC50 [5]	IC50 [6]	fold less active than CA-4 (tubulin assembly) [2]	IC50 ([4]; Homo sapiens)
COc1cc(C2=NC(=Cc3cc4ccc(C)cc4nc3OC)C(=O)N2)cc(OC)c1OC [Compound 13c, 5-[(2-Methoxy-7-methylquinolin-3-yl)methylene]-2–(3,4,5-trimethoxyphenyl)-3,5-dihydro-4H-imidazol-4-one]	733 ± 91 nM	236 to 238 °C	16 fold	20300 nM	223 ± 56 nM	submicromolar	284 ± 83 nM	661 ± 26 nM		
COc1cc(C2=NC(=Cc3cc4cccc(C)c4nc3OC)C(=O)O2)cc(OC)c1OC [Compound 12d, 4-[(2-Methoxy-8-methylquinolin-3-yl)methylene]-2–(3,4,5-trimethoxyphenyl) oxazol-5(4H)-one]	153 ± 83 nM	236 to 238 °C			154 ± 71 nM		191 ± 1 nM	268 ± 93 nM		
COc1cc(C2=NC(=Cc3cc4ccc(OC(C)C)cc4nc3OC)C(=O)N2)cc(OC)c1OC [Compound 13g, 5-((7-Isopropoxy-2-methoxyquinolin-3-yl)methylene)-2–(3,4,5-trimethoxyphenyl)-3,5-dihydro-4H-imidazol-4-one]	4440 ± 600 nM	238 to 240 °C			5560 ± 133 nM		1620 ± 950 nM	5110 ± 410 nM		
COc1cc(C2=NC(=Cc3cc4cc(C)ccc4nc3OC)C(=O)O2)cc(OC)c1OC [Compound 12b, 4-[(2-Methoxy-6-methylquinolin-3-yl)methylene]-2–(3,4,5-trimethoxyphenyl) oxazol-5(4H)-one]	117 ± 85 nM	218 to 220 °C			132 ± 13 nM		184 ± 7 nM	197 ± 41 nM		
COc1ccc2cc(C=C3N=C(c4cc(OC)c(OC)c(OC)c4)OC3=O)c(OC)nc2c1 [Compound 12f, 4-[(2,7-Dimethoxyquinolin-3-yl)methylene]-2–(3,4,5-trimethoxyphenyl)oxazol-5(4H)-one]	138 ± 26 nM	221 to 223 °C			52 ± 2.1 nM		66 ± 5 nM	352 ± 21 nM		
COc1cc(C2=NC(=Cc3cc4ccc(OC(C)C)cc4nc3OC)C(=O)O2)cc(OC)c1OC [Compound 12g, 4-[(7-Isopropoxy-2-methoxyquinolin-3-yl)methylene]-2–(3,4,5-trimethoxyphenyl)oxazol-5(4H)-one]	1750 ± 500 nM	227 to 229 °C		8230 nM	1510 ± 220 nM		7880 ± 300 nM	1820 ± 640 nM	4 fold	
COc1ccc2nc(OC)c(/C=C3\N=C(c4cc(OC)c(OC)c(OC)c4)OC3=O)cc2c1 [Compound 12e]	10 ± 4 nM	242 to 244 °C		2260 nM	56 ± 27 nM		31 ± 1 nM	68 ± 34 nM		
COc1ccc2cc(C=C3N=C(c4cc(OC)c(OC)c(OC)c4)NC3=O)c(OC)nc2c1 [Compound 13f, 5-[(2,7-Dimethoxyquinolin-3-yl)methylene]-2–(3,4,5-trimethoxyphenyl)-3,5-dihydro-4H-imidazol-4-one]	101 ± 90 nM	241 to 243 °C			92 ± 6.2 nM		187 ± 9 nM	210 ± 98 nM		
COc1cc(C2=NC(=Cc3cc4cccc(C)c4nc3OC)C(=O)N2)cc(OC)c1OC [Compound 13d, 5-[(2-Methoxy-8-methylquinolin-3-yl)methylene]-2–(3,4,5-trimethoxyphenyl)-3,5-dihydro-4H-imidazol-4-one]	126 ± 44 nM	233 to 235 °C			137 ± 23 nM	submicromolar	109 ± 11 nM	96 ± 6 nM		
COc1cc(C2=NC(=Cc3cc4ccc(OCc5ccccc5)cc4nc3OC)C(=O)N2)cc(OC)c1OC [Compound 13h, 5-[(7-(Benzyloxy)-2-methoxyquinolin-3-yl)methylene]-2–(3,4,5-trimethoxyphenyl)-3,5-dihydro-4H-imidazol-4-one]	2070 ± 390 nM	259 to 261 °C			1700 ± 821 nM		2610 ± 430 nM	4930 ± 260 nM		
COc1cc(C2=NC(=Cc3cc4cc(C)ccc4nc3OC)C(=O)N2)cc(OC)c1OC [Compound 13b, 5-[(2-Methoxy-6-methylquinolin-3-yl)methylene]-2–(3,4,5-trimethoxyphenyl)-3,5-dihydro-4H-imidazol-4-one]	188 ± 13 nM	223 to 225 °C			63 ± 1.1 nM	submicromolar	173 ± 25 nM	240 ± 12 nM		
COc1ccc2nc(OC)c(C=C3N=C(c4cc(OC)c(OC)c(OC)c4)NC3=O)cc2c1 [Compound 13e, 5-[(2,6-Dimethoxyquinolin-3-yl)methylene]-2–(3,4,5-trimethoxyphenyl)-3,5-dihydro-4H-imidazol-4-one]	62 ± 3 nM	253 to 255 °C		1480 nM	42 ± 2.5 nM		85 ± 3 nM	272 ± 50 nM		
COc1cc(C2=NC(=Cc3cc4ccc(OCc5ccccc5)cc4nc3OC)C(=O)O2)cc(OC)c1OC [Compound 12h, 4-[(7-(Benzyloxy)-2-methoxyquinolin-3-yl)methylene]-2–(3,4,5-trimethoxyphenyl)oxazol-5(4H)-one]	1050 ± 840 nM	247 to 249 °C			1930 ± 612 nM		1560 ± 720 nM	4660 ± 260 nM		
COc1cc(C2=NC(=Cc3cc4ccccc4nc3OC)C(=O)O2)cc(OC)c1OC [Compound 12a, 4-[(2-Methoxyquinolin-3-yl)methylene]-2–(3,4,5-trimethoxyphenyl)oxazol-5(4H)-one]	2110 ± 34 nM	215 to 217 °C		14000 nM	1710 ± 40 nM		2010 ± 80 nM	3309 ± 22 nM	6 fold	
COc1cc(C2=NC(=Cc3cc4ccccc4nc3OC)C(=O)N2)cc(OC)c1OC [Compound 13a, 5-[(2-Methoxyquinolin-3-yl)methylene]-2–(3,4,5-trimethoxyphenyl)-3,5-dihydro-4H-imidazol-4-one]	1410 ± 96 nM	230 to 232 °C			1030 ± 55 nM		8210 ± 7.7 nM	1560 ± 55 nM		> 1000 nM
